Data published in patent publication US11291659B2, “P38 kinase inhibitors reduce DUX4 and downstream gene expression for the treatment of FSHD” (Fulcrum Therapeutics, Inc., priority 2017, dated 2022).

What was measured:
Assay type in all cases: cell-based, Human
[1] = system: MBD3L2 mRNA (DUX4 downstream gene); assay: MBD3L2 mRNA expression by qPCR in FSHD myotubes
Method: Cell Plating: Performed three days prior to treatment, 10000 cells were plated per well on gelatinized 96-well plates, or 100000 cells on gelatinized 6-well plates.
(§1) For ASO or compound treatments cells were plate into 100 μL of Promocell growth medium containing ASO or compounds at the described concentrations.
(§2) On day 0, change to differentiation media. Remove plates from the incubator and aspirate the growth medium, Wash once with PBS, 100 μL for 96-wells and 1 mL for a 6-well plate, Add 100 μL or 2 mL of differentiation medium per well, 96- or 6-well respectively. Add antisense oligonucleotides or drug at the desire concentration and put back in the incubator. Fusion should start within day 1-2. Incubate for 3-4 days.
(§3) Cells were removed from the incubator and media aspirated. Quickly lysed following one of the following protocols: For lysis in 96-well plates direct lysis and one-step RT-Preamp qPCR protocol described below. For each 96-well prepare a mix containing: 19.5 μL Roche Realtime Ready lysis buffer, 0.25 μL RNAse inhibitor, 0.25 μL DNAseI (from Thermo not the included one in the kit). 20 μL of the mix was added to each well, mix 5 times and incubated 5 minutes at RT or alternatively shaken vigorously for 15 minutes. Lysis was observed under the microscope. Samples were frozen −80° C. at least for 15 minutes,
(§4) For qPCR, dilute 1:10 and use 2 μL for a 10 μL 1-step RT-qPCR reaction. For detection of GAPDH, RPLP0, TBP, MYOG, FRG1, MYH3, ACTN2, etc.). Per 10 μL reaction: RNA (1:10 dilution lysate) 2 μL, Fast Advanced Taqman Master Mix (2×) 5 μL, RT enzyme mix (40×) 0.25 μL, Taqman probe set (20×) 0.5 μL, H2O 2.25 μL. The following reaction protocol was run on the QuantStudio 7: 48° C. for 15 min, 50° C. for 2 min, 95° C. for 30 sec, 40×, 95° C. for 5 sec, 60° C. for 30 sec, then plates were read as specified by the manufacturer (Thermo). For 1-step RT-Preamplification used for detection of DUX4 downstream genes, i.e. MBD3L2, ZSCAN4, LEUTX, TRIM43, KHDC1L. POL2RA-VIC was used as Endogenous control). Per 10 μL reaction: RNA (1:10 dilution lysate) 2.25 μL, Taqman Pre-Amp Master Mix (2×) 5 μL, RT enzyme mix (40×) 0.25 μL, Taqman probe set (0.2×)*2.5 μL, * Pooling the TaqMan Assays: equal volumes of each 20× TaqMan® Gene Expression Assay, up to 100 assays were combined. For example, to pool 50 TaqMan assays, 10 μL of each assay were combined in a microcentrifuge tube. The pooled TaqMan assays were diluted using 1×TE buffer so that each assay is at a final concentration of 0.2×. For the above example, add 500 μL of 1×TE buffer to the pooled TaqMan assays for a total final volume of 1 mL. The QuantStudio7 protocol was used 48° C. 15 min, 95° C. 10 min, 10 cycles: 95° C. 15 sec, 60° C. 4 min, 4° C. infinite. Samples were then diluted to 50 μL and continue with the qPCR step. Per 10 μL reaction: Preamp dilution 2 μL, Fast Advanced Taqman Master Mix (2×) 5 μL, Taqman probe set (20×) 0.5 μL, H2O 2.5 μL. When multiplexing the volume was adjusted to 10 μL total). The following program was run on the QuantStudio7: 50° C. for 2 min, 95° C. for 30 sec, 40×, 95° C. for 5 sec, 60° C. for 30 sec, plates were read as per the manufacturers specifications (Thermo).
(§5) After treatment, the control and treated cells were processed for realtime PCR quantification of MBD3L2 mRNA (DUX4 downstream gene) and myogenin (MYOG) mRNA (control) expression.

myogenin (MYOG) mRNA = assay: Myogenin (MYOG) mRNA expression by qPCR in FSHD myotubes (control gene)
Method: as §1, §2, §3
as §4, with “For the above example, add 500 μL of 1×TE buffer to the pooled TaqMan assays for a total final volume of 1 mL. The QuantStudio7 protocol was used 48° C. 15 min, 95° C. 10 min, 10 cycles: 95° C. 15 sec, 60° C. 4 min, 4° C. infinite. Samples were then diluted to 50 μL and continue with the qPCR step. Per 10 μL reaction: Preamp dilution 2 μL, Fast Advanced Taqman Master Mix (2×) 5 μL, Taqman probe set (20×) 0.5 μL, H2O 2.5 μL. When multiplexing the volume was adjusted to 10 μL total).” left out
as §5

FSHD myotubes = assay: Myotube formation / fusion, MHC and DAPI staining; settings: FSHD myotubes; 10, 100, and 1000 nM
Method: as §2
Briefly, cells were fixed in 4% paraformaldehyde and […] for 10 min at room temperature. Cells were permeabilized with PBST (1×PBS solution with 0.1% Triton X-100) before blocking with 10% Normal Donkey Serum or 3% BSA (NDS) in PBST. […] DUX4 was detected by immunocytochemistry using the E5-5 antibody in differentiated FSHD myotubes. Activated Caspase-3 was detected cell signaling antibody that we're using for ICC, Asp175 (https://www.cellsignal.com/products/primary-antibodies/cleaved-caspase-3-asp175-antibody/9661).
Immortalized FHSD myotubes were differentiated and treated with DMSO vehicle control or FTX-1821 at concentrations of 1 μM, 0.33 μM, 0.11 μM, or 0.037 μM. […] The nuclei in myotubes were quantified according to MHC staining (FIG. 8B).

active Caspase-3 = assay: Apoptosis by active Caspase-3 in FSHD myotubes; settings: FSHD1 and FSHD2 lines; 1 μM
Method: Briefly, cells were fixed in 4% paraformaldehyde and […] for 10 min at room temperature. Cells were permeabilized with PBST (1×PBS solution with 0.1% Triton X-100) before blocking with 10% Normal Donkey Serum or 3% BSA (NDS) in PBST. Cells were then incubated with appropriately diluted primary antibodies in PBST with 5% NDS for 1 hours at room temperature or 12 hours at 4° C., washed with PBST for 3 times at room temperature and then incubated with desired secondary antibodies in TBST with 5% NDS and DAPI to counter stain the nuclei. DUX4 was detected by immunocytochemistry using the E5-5 antibody in differentiated FSHD myotubes. Activated Caspase-3 was detected cell signaling antibody that we're using for ICC, Asp175 (https://www.cellsignal.com/products/primary-antibodies/cleaved-caspase-3-asp175-antibody/9661).
Apoptosis was measured by active Caspase-3 levels in FSHD myotubes in vitro as described in Materials and Methods. Apoptosis was detected in a sporadic manner in a subset of myotubes in culture as shown by the white circles and magnified region in FIG. 9A. Active Caspase-3 signal was quantified in FSHD myotubes that had been treated with FTX-1821 at different concentrations (FIG. 9B). […] No change in active Caspase-3 signal was observed following DMSO treatment.

IC50 ([1]; Homo sapiens, Myotube, read-out: IC50, reduction of MBD3L2 mRNA expression, FSHD myotubes, realtime PCR): < 10 nM
SMILES: Cn1c(=O)c(Oc2ccc(F)cc2F)cc2cnc(NC(CCO)CCO)nc21 [Pamapimod, 6-(2,4-difluorophenoxy)-2-((1,5-dihydroxypentan-3-yl)amino)-8-methylpyrido[2,3-d]pyrimidin-7(8H)-one]
MBD3L2 mRNA expression ([1]; FSHD1 and FSHD2 primary patient myoblast lines, 1 μM): reduction of MBD3L2
MBD3L2 downstream gene mRNA levels normalized to POLR2A mRNA ([1]; FSHD myotubes, 10, 100, and 1000 nM vs DMSO): dose-dependently reduced
MBD3L2 expression levels ([1]; myotubes of four FSHD patient lines FTCE-016, -020, -197, -196, 1 μM): reduced in all of the FSHD lines
MYOG mRNA expression (myogenin (MYOG) mRNA): no impact
differentiation into myotubes (FSHD myotubes): without impacting
apoptosis (active caspase-3) (active Caspase-3): reduction in apoptosis
